Assay results as given in patent US20070254899A1, “Soluble salts of thieno[2,3-d]pyrimidine derivatives” (Dynogen Pharmaceuticals, Inc., priority 2006, published 2007).
Values joined by “and” are separate entries in the source; they are usually repeats but may differ in a detail not shown here. Equal entries are not always repeated. Structures can show the parent of a compound that is named as a salt.

Key:
[1] = type: physicochemical
Procedure: (§1) Form I was characterized by pKa, LogP, LogPion and LogD determination and prediction, XRPD before and after storage at 40° C./75% RH for 4 weeks, PLM, DSC and TGA, ^1HNMR, solubility in water with pH measurement, HPLC purity before and after storage at 40° C./75% RH for 4 weeks, water content, GVS with XRPD and purity analysis after measurement, and VT-XRPD.
LogP, LogPion and LogD values were measured by using different ratios of 0.1 5M KCl(Aq) to 1-octanol, with refinement of a multiset of the data. The measured LogP, 3.96, is in good agreement with the predicted values.

[2] = Procedure: The suspension was then equilibrated at 25° C. for 24 hours followed by a pH check and filtration through a glass fibre C 96 well plate. […] HPLC using a generic 5 minute method was used to quantify the amount of sample in solution with reference to a standard dissolved in DMSO at 0.1 mg/ml. Various volumes of the standard, diluted and undiluted tests were injected. […] If sufficient solid remained in the filter plate the XRPD was normally checked for phase changes, hydrate formation, amorphization, crystallization and other changes.
[3] = Storage at 40° C./75% RH (XRPD, HPLC purity, colour); type: physicochemical
[4] = GVS (gravimetric vapour sorption), single cycle; type: physicochemical
Procedure: as §1
This weight increase was not associated with any significant hysteresis between the adsorption and desorption cycles.

[5] = type: physicochemical; remark: listed apart in the source
Procedure: as §1
As expected from the predicted values, the compound is suitable for a mono salt screen and should form strong stable salts.

[6] = tested on: rats; experiment: Visceromotor response to colorectal distension, acetic acid-induced colonic hypersensitivity; type: in vivo, rat; conditions: for Visceromotor response (number of abdominal contractions) to colorectal distension vs vehicle: all doses tested i.p. (ondansetron 1, 5, 10; nisoxetine 3, 10, 30 mg/kg)
Procedure: A 10 min recovery was allowed between distensions.
Adult male rats were used in the study.
Ten minute recovery periods were allowed following each distension.
Statistical significance of the treatment groups was assessed using one-way ANOVA followed by Tukey post-test. […] (*) p<0.05, (**) p<0.01, (***) p<0.001

[7] = tested on: ferrets; experiment: Cisplatin-induced emesis in the ferret; type: in vivo, Mustela putario furo
Procedure: The ability of MCI-225 to reduce retching and vomiting in an accepted model of cytotoxin-induced emesis in the ferret was assessed. Specifically, the experiments described herein investigated the effect of MCI-225 on retching and vomiting induced by cisplatin. Ondansetron was used as a positive control in the model, in view of its known antiemetic activity. Adult male ferrets (Mustela putario furo) weighing 1200-1880 g were purchased from Triple F Farms (Sayre, Pa.) and housed in individual cages at standardized conditions (12:12 h light/dark cycle and 21-23° C.). Prior to the experiments, the ferrets were allowed a 7-10 day acclimatization period to the animal facility. The ferrets were fed a carnivore diet with free access to food and water throughout the course of the study. The use of the ferret model of emesis and the drug treatment were preapproved in accordance with facility standards. A cisplatin solution was prepared by adding preheated (70° C.) saline to cisplatin powder (Sigma-Aldrich Co.) and stirring or sonicating at 40° C. until dissolved. Following administration of the cisplatin and either MCI-225, ondansetron or vehicle alone, the occurrence of retching and vomiting was monitored for a period of 6 hours. Retching was defined as the number of forceful rhythmic contractions of the abdomen occurring with the animal in characteristic posture, but not resulting in the expulsion of upper gastrointestinal tract contents (Watson et al., British Journal of Pharmacology, 115(1): 84-94 (1994)). Vomiting was defined as the forceful oral expulsion of upper gastrointestinal contents. The latency of the retching or vomiting response and the number of episodes were recorded for each animal and summarized for each experimental group (Wright et al., Infect. Immun., 68(4): 2386-9 (2000)). Following one hour of acclimation to the observation cage, ferrets received an intraperitoneal (i.p.) injection of cisplatin (5 mg/kg in 5 mL) followed in about 2 minutes by i.p. injection of a single dose of MCI-225 or ondansetron (Rudd and Naylor, Eur. J. Pharmacol., 322: 79-82 (1997)). Dose-response effects of MCI-225 dosed at 1, 10 and 30 mg/kg i.p. in a 0.5 mL/kg solution or ondansetron dosed at 5 and 10 mg/kg i.p. in a 0.5 mL/kg solution were studied. Each animal received a single-dose drug treatment. In addition, three animals received an initial dose (30 mg/kg i.p.) and a second MCI-225 injection (30 mg/kg i.p.) 180 minutes following the initial dose. […] All groups were randomized.

[8] = tested on: rats; experiment: Small Intestinal Transit Rodent Model (charcoal meal); type: in vivo, rat; conditions: for Small intestinal transit, Mean (% of total small intestinal length): 15-min test period
Procedure: Following an overnight fast, rats were brought to the laboratory in their home cages and received an i.p. injection of one of the following: […] Control rats received no treatment. The treated rats were placed back in the home cages and after 30 min, were fed a 2 mL charcoal meal via an oral gavage. Small intestinal transit was measured following 15 min test-period. Each rat was placed briefly in a glass chamber with IsoFlo for anesthesia and sacrificed. The stomach and the small intestine were removed and the total length of the small intestine was measured. Transit was then measured as the distance that the charcoal meal had traveled along the small intestine and expressed as % of the total length. Animals were randomly assigned to experimental groups and experiments were performed as illustrated in Table 3. Ondansetron was supplied from APIN Chemicals LTD. […] MCI-225 was provided by Mitsubishi Pharma Corp. All drugs were dissolved in a vehicle of 100% propylene glycol (1,2-Propanediol) by sonicating for 10 min. Propylene glycol was obtained from Sigma Chemical Co. Ondansetron, a 5-HT3-receptor antagonist was dosed i.p. at 1, 5, and 10 mg/kg. […] All doses were delivered in a final volume of 200 μL. Animals in the vehicle control group received 200 μL of 100% Propylene glycol and animals in the normal control group were untreated. Small intestinal transit in rats was investigated by the passage of a charcoal meal along the small intestine during a defined time period (15-min). The animals were deprived of food for 12-16 hrs prior to the experiments. Rats were given a charcoal meal (a mixture of charcoal, gum arabic, and distilled water) as a 2 mL oral gavage and were sacrificed after a 15-min test period. The distance traveled by the charcoal meal was quantified as a percent of the small intestinal length, using the following equation: Transit (%)=cm traveled by meal/cm total small intestinal length×100 […] Statistical analysis was performed to determine mean, standard error to the mean and standard deviation for each group (See Table 3). Differences between individual dose groups within treatments and comparisons between drug-treated and vehicle-treated groups were determined using an unpaired t test considering that when % is used as a relative unit, t-statistic is relevant. In all cases p<0.05 was considered statistically significant.

[9] = tested on: rats; experiment: Water avoidance stress (WAS) model of increased colonic transit, fecal pellet output; type: in vivo, rat; conditions: for WAS-induced fecal pellet output in 1 hour: all doses tested i.p. (MCI-225, nisoxetine 3, 10, 30; ondansetron 1, 5, 10 mg/kg)
Procedure: Ondansetron (5-HT3 receptor antagonist), nisoxetine (NARI) and a combination of ondansetron and nisoxetine were used as comparison compounds. The model provides a method of evaluating the effectiveness of a compound in a specific patient group of IBS sufferers where stress induced colonic motility is considered a significant contributing factor.
Fecal pellet output was measured by counting the total number of fecal pellets produced during 1 hour of WAS.
All rats underwent sham stress (I-hour in stress chamber without water) for 2-4 consecutive days before undergoing WAS (sham was performed until rats produced 0-1 pellet per hour for 2 consecutive days). At the end of the 1-hour stress period, the fecal pellets were counted and recorded.
WAS causes an acceleration of colonic transit, which can be quantified by counting the number of fecal pellets, produced during the stress procedure. Rats were placed for 1-hour into a stress chamber onto a raised platform 7.5 cm×7.5 cm×9 cm (L×W×H) in the center of a stress chamber filled with room temperature water 8 cm in depth.
Control drugs for this study were ondansetron and nisoxetine. Ondansetron was supplied from APIN Chemicals LTD. Nisoxetine was supplied by Tocris. […] All drugs and the vehicle were administered as an i.p. injection in a volume of 0.2 mL.
Statistical significance was assessed using one-way ANOVA followed by Tukey post-test. Statistical differences were compared between the WAS groups and the sham stress group and was considered significant if p<0.05. (*) p<0.05, (**) p<0.01, (***) p<0.001

[10] = 30 mg/kg b.i.d, i.p., 180-min interval

“4-(2-fluorophenyl)-6-methyl-2-(piperazin-1-yl)thieno[2,3-d] pyrimidine hydrochloride [MCI-225]” showed a LogP [1] of 3.96, a LogPion [1] of 1.41 and a LogD ([1]; pH 7.4) of 2.72. For the same compound, the Aqueous solubility [2] was 2100 µg/mL, the “Aqueous solubility, equivalent as the free base” value [2] was 1700 µg/mL and the “pH after solubility equilibration” value [2] was 6.33. For the same compound, the “Appearance of material surface after storage” value ([3]; 4 weeks at 40° C./75% RH, ambient light) was “gone yellow”, the “HPLC purity after storage” value ([3]; 4 weeks at 40° C./75% RH, ambient light, initial purity 100%) was 99.0% and the “XRPD pattern after storage” value ([3]; 40° C./75% RH, four weeks) was “unchanged”. The “GVS total weight increase” value ([4]; between 0 and 90% RH) was 5.0%, the GVS weight increase ([4]; between 20% and 30% RH, equivalent to 1.0 moles of water) was “about 4.8%” and the “pKa (basic)” value [5] was 8.64. For the same compound, the “pKa of second basic centre” value [5] was 0.81.
For `Cc1cc2c(-c3ccccc3F)nc(N3CCNCC3)nc2s1` [MCI-225, 4-(2-fluorophenyl)-6-methyl-2-(piperazin-1-yl)thieno[2,3-d] pyrimidine hydrochloride], the “Animals in which the visceromotor response to CRD was eliminated” value ([6]; 30 mg/kg i.p., acetic acid sensitized rats) was 50 % of the animals, the Latency ([7]; 1 mg/kg i.p.) was 186 ± 35 min and the “Retches (360 min)” value ([7]; 1 mg/kg i.p.) was 30.4 ± 9.1. The “Total Events” value ([7]; 1 mg/kg i.p.) was 32.9 ± 9.8, the “Vomits (360 min)” value ([7]; 1 mg/kg i.p.) was 2.5 ± 0.7 and the Latency ([7]; 10 mg/kg i.p.) was 192 ± 57 min. For the same compound, the “Retches (360 min)” value ([7]; 10 mg/kg i.p.) was 22.9 ± 10.3, the “Total Events” value ([7]; 10 mg/kg i.p.) was 25.5 ± 11.1 and the “Vomits (360 min)” value ([7]; 10 mg/kg i.p.) was 2.6 ± 1.0. For the same compound, the Latency [7, 10] was 360 ± 0 min, the “Retches (360 min)” value [7, 10] was 0.0 ± 0.0 and the “Total Events” value [7, 10] was 0.0 ± 0.0. The “Vomits (360 min)” value [7, 10] was 0.0 ± 0.0, the Latency ([7]; 30 mg/kg i.p.) was 287 ± 38 min and the “Retches (360 min)” value ([7]; 30 mg/kg i.p.) was 3.3 ± 2.2. For the same compound, the “Total Events” value ([7]; 30 mg/kg i.p.) was 4.0 ± 2.6, the “Vomits (360 min)” value ([7]; 30 mg/kg i.p.) was 0.7 ± 0.5 and the “Small intestinal transit, Mean (% of total small intestinal length)” value ([8]; 3 mg/kg i.p.) was 30.1%. The “Small intestinal transit, Mean (% of total small intestinal length)” value ([8]; 10 mg/kg i.p., hydrochloride) was 4.2±2.6% and 4.2% and the “Small intestinal transit, Mean (% of total small intestinal length)” value ([8]; 30 mg/kg i.p.) was 8.8%.
In the case of `CNCCC(Oc1ccccc1OC)c1ccccc1` (centres unmarked) [Nisoxetine], the “Behavior in the home cage during the experiments” value ([6]; 30 mg/kg i.p.) is reported as “increased exploratory behavior”, the “Visceromotor response (number of abdominal contractions) to colorectal distension vs vehicle” value [6] is reported as “no significant effect” and the “Fecal pellets produced during WAS vs vehicle treated group” value ([9]; 10 and 30 mg/kg i.p.) is reported as “significantly fewer fecal pellet produced”. For the same compound, the “WAS-induced fecal pellet output in 1 hour” value [9] was “reduced by all doses”, the “Animals with charcoal meal completely retained in the stomach” value ([8]; 30 mg/kg i.p.) was 4 out of 5 and the Small intestinal transit ([8]; 30 mg/kg i.p.) was “almost completely inhibited the transit”. The Small intestinal transit ([8]; 3 or 10 mg/kg i.p.) was “tendency to decrease small intestinal transit”.
In the case of `Cc1nccn1CC1CCc2c(c3ccccc3n2C)C1=O` (centres unmarked) [Ondansetron], the “Visceromotor responses at moderate and high intraluminal pressure” value ([6]; 10 mg/kg i.p., 30 and 60 mmHg) is reported as “did not abolish the responses”, the “Behavioral activity of the rats” value ([6]; 1, 5 or 10 mg/kg i.p.) is reported as “No significant changes in the behavioral activity” and the “Visceromotor response (number of abdominal contractions) to colorectal distension vs vehicle” value [6] is reported as “dose-dependent decrease in the number of abdominal contractions”. For the same compound, the “Latency of the emetic response following cisplatin” value ([7]; all doses tested i.p.) was “increase in the latency”, the “Emetic events (retches and vomits) induced by cisplatin” value ([7]; all doses tested i.p. (ondansetron 5, 10; MCI-225 1, 10, 30 mg/kg)) was “dose-dependently reduced the number of emetic events” and the “WAS-induced fecal pellet output in 1 hour” value [9] was “dose-dependent inhibition”. For the same compound, the “Small intestinal transit vs vehicle” value ([8]; all doses tested i.p. (MCI-225 3, 10, 30; ondansetron 1, 5, 10 mg/kg)) was “significant reduction in small intestinal transit”.
